In patent US20180140545A1, “ANTIMICROBIAL PEPTIDE STIMULATING SANITIZING COMPOSITION” (GOJO Industries, Inc., priority 2016, published 2018):

Legend:
Type in all cases: cell-based
HBD-2 = HBD-2 ELISA, dose response in Neonatal Human Epidermal Keratinocytes; settings: for HBD-2: NHEK, overnight (16 hours)
Experimental: (§1) To determine the optimal dose of active ingredient, test dose response studies were run using both Decorinyl® and Pamitoyl Pentapeptided-3. These test dose response studies were commissioned to determine the concentration of HBD-2 at various levels of the active ingredients. Neonatal Human Epidermal Keratinocytes (NHEK; Life Technology, Grand Island, N.Y., USA) were cultured with keratinocyte growth medium (KGM, Medium 154: M-154-500 Life Technology with supplements S-001, Life Technologies). NHEK were seeded into 96-well plates at a density of 10000 cells in 200 μl medium per well. After 48 hours, the cells were incubated with varying concentrations of each ingredient solution in a culture medium (KGM) overnight (16 hours) at 37° C., 5% CO2 and 95% humidity at four replicates for each concentration. Each of these active ingredients were tested at the following weight percents based on the weight of the total culture: 0.02 wt. %, 0.05 wt. %, 0.1 wt. %, 0.2 wt. %, 0.5 wt. %, 1.0 wt. %, 2.0 wt. %. Each of these compositions was compared to a control culture medium.
(§2) HBD-2 was detected using HBD-2 ELISA developing kits (commercially available from Peprotech). ELISA were performed according to the manufactory instructions of each kit by adding 100 μl/well of culture medium after overnight treatment. The substrate of ELISA reaction was using the substrate reagent from R&D Systems (DY999), and the reactions were stopped by adding 50 μl of 1N H2SO4 in each well. The results were measured using a colorimeter, absorbance was measured at 450 nanometers (nm) within 30 minutes. Wavelength correction was set to 570 nm. The concentration of each sample was calculated using ELISA standard curve.

HBD-1 = HBD-1 ELISA, dose response in Neonatal Human Epidermal Keratinocytes; settings: for HBD-1: NHEK, overnight (16 hours); for increase in HBD-1 production and/or activity: vs control culture medium
Experimental: as §1, with “of HBD-1” for “of HBD-2”, “ingredients was” for “ingredients were”
as §2, with “HBD-1 was detected” for “HBD-2 was detected”, “detected using HBD-1 ELISA (enzyme-linked” for “detected using HBD-2 ELISA developing”, “HBD-1 ELISA (enzyme-linked immunosorbent assay) developing kits” for “HBD-2 ELISA developing kits”

HBD-3 = HBD-3 ELISA, dose response in Neonatal Human Epidermal Keratinocytes; settings: for HBD-3: NHEK, overnight (16 hours); for increase in HBD-3 production and/or activity: vs control culture medium
Experimental: as §1, with “of HBD-3” for “of HBD-2”, “ingredients was” for “ingredients were”
as §2, with “HBD-3” for “HBD-2”

**Q.** Which “HBD-2” value (HBD-2; 0.02% active ingredient) does the source give for “palmitoyl pentapeptide-3 [Pamitoyl Pentapeptided-3]” here?
**A.** 9 pg/mL

**Q.** And the “HBD-2” value (HBD-2; 0.05% active ingredient)?
**A.** 8 pg/mL

**Q.** And the “HBD-2” value (HBD-2; 0.1% active ingredient)?
**A.** 9 pg/mL

**Q.** What about the “HBD-2” value (HBD-2; 0.2% active ingredient) of the same substance?
**A.** 14 pg/mL

**Q.** And the “HBD-2” value (HBD-2; 0.5% active ingredient)?
**A.** 21 pg/mL

**Q.** What about the “HBD-2” value (HBD-2; 1% active ingredient) of the same substance?
**A.** 72 pg/mL

**Q.** What about the “HBD-2” value (HBD-2; 2% active ingredient) of the same substance?
**A.** 203 pg/mL

**Q.** What about the “increase in HBD-2 production and/or activity” value (HBD-2; 2.0 wt. %, vs control culture medium) of the same substance?
**A.** 2800%

**Q.** And the “HBD-1” value (HBD-1; 0.02% active ingredient)?
**A.** 59 pg/mL

**Q.** And the “HBD-1” value (HBD-1; 0.05% active ingredient)?
**A.** 57 pg/mL

**Q.** What about the “HBD-1” value (HBD-1; 0.1% active ingredient) of the same substance?
**A.** 64 pg/mL

**Q.** What about the “HBD-1” value (HBD-1; 0.2% active ingredient) of the same substance?
**A.** 85 pg/mL

**Q.** And the “HBD-1” value (HBD-1; 0.5% active ingredient)?
**A.** 162 pg/mL

**Q.** What about the “HBD-1” value (HBD-1; 1% active ingredient) of the same substance?
**A.** 259 pg/mL

**Q.** And the “increase in HBD-1 production and/or activity” value (HBD-1; 1.0 wt. %)?
**A.** 311%

**Q.** And the “HBD-1” value (HBD-1; 2% active ingredient)?
**A.** 1047 pg/mL

**Q.** What about the “increase in HBD-1 production and/or activity” value (HBD-1; 2.0 wt. %) of the same substance?
**A.** 1561%

**Q.** What about the “HBD-3” value (HBD-3; 0.02% active ingredient) of the same substance?
**A.** 288 pg/mL

**Q.** And the “HBD-3” value (HBD-3; 0.05% active ingredient)?
**A.** 242 pg/mL

**Q.** What about the “HBD-3” value (HBD-3; 0.1% active ingredient) of the same substance?
**A.** 387 pg/mL

**Q.** And the “HBD-3” value (HBD-3; 0.2% active ingredient)?
**A.** 775 pg/mL

**Q.** And the “HBD-3” value (HBD-3; 0.5% active ingredient)?
**A.** 2278 pg/mL

**Q.** And the “HBD-3” value (HBD-3; 1% active ingredient)?
**A.** 4783 pg/mL

**Q.** What about the “increase in HBD-3 production and/or activity” value (HBD-3; 1.0 wt. %) of the same substance?
**A.** 1005%

**Q.** What about the “HBD-3” value (HBD-3; 2% active ingredient) of the same substance?
**A.** 8617 pg/mL

**Q.** And the “increase in HBD-3 production and/or activity” value (HBD-3; 2.0 wt. %)?
**A.** 1890%
